Test results published in paper PMC8691750, “Euphorbia Factor L2 ameliorates the Progression of K/BxN Serum-Induced Arthritis by Blocking TLR7 Mediated IRAK4/IKKβ/IRF5 and NF-kB Signaling Pathways” (Frontiers in Pharmacology, 2021).

Columns and labels:
[1] = tested on: lung cancer cell line A549; design: method as in Lin et al., 2017; conditions: in vitro, dose-dependent; ref Lin et al., 2017; cited from earlier work
[2] = tested on: SMMC-7721 and Hep G2 cells; design: method as in Fan et al., 2019; conditions: via STAT3 phosphorylation; ref Fan et al., 2019; cited from earlier work
[3] = tested on: TLR7 (R837) / TLR3 (poly:IC) induced cytokine production in BMDMs; experiment: ELISA of IL-1β and IL-6 in supernatant of R837 and/or poly:IC stimulated BMDMs; assay type: cell-based, C57BL/6 mice
Experimental: (§1) RAW264.7 cells, a mouse macrophage cell line, were cultured in DMEM medium containing 10% fetal bovine serum (FBS), 1% penicillin-streptomycin and maintained at 37 °C in 5% CO2 humidified air. Bone marrow-derived macrophages (BMDMs) generation was performed as following description. In brief, bone marrow cells were harvested from tibias and femurs of C57BL/6 mice and differentiated for 7 days in DMEM medium supplemented with 10% FBS, 1% penicillin-streptomycin and 50 ng/ml M-CSF. For human peripheral blood mononuclear cells (PBMCs) preparation, 5 ml peripheral venous blood was obtained from healthy donors in West China Hospital. PBMCs were isolated with Human Lymphocyte Separation Medium (LTS1077, Tian Jing, China) according to the manufacturer’s instructions. The experimental protocols were performed according to the approved guidelines established by the Institutional Human Research Subject Protection Committee of the Ethics Committee of West China Hospital, Sichuan University, China.
RAW264.7 cells (5×10^5/ml), BMDMs (5×10^5/ml) and PBMCs (2×10^6/ml) were plated in 96-well plates and incubated overnight. […] For the anti-inflammatory molecular mechanism study, RAW264.7 cells (5×10^5/ml) were plated in 96-well plates and stimulated with R837 (20 μg/ml) with or without the addition of NF-κB inhibitor (JSH-23, […]) for 24 h. After 24 h, the culture supernatant was collected for cytokines measurements.
(§2) IL-4, IL-17A and TNF-α in sera from different group mice were measured using CBA Multiplex kit (BD, United States). The concentrations of IL-1β and IL-6 in serum or supernatant were detected by ELISA Kit (MULTI SCIENCES, China) according to the manufacturers’ instructions.

[4] = tested on: bone marrow-derived macrophages (BMDMs); experiment: Cell viability, CCK8 assay, BMDMs; assay type: cell-based, C57BL/6 mice; conditions: CCK8, 0.1-100 μM, 20 h
Experimental: as §1
The effects of EFL2 on RAW264.7 cells, BMDMs and PBMCs viability were evaluated by Cell Counting Kit-8 (CCK8) assay (Dojindo, Japan). […] The optical absorbance at 450 nm was read with a Biotek Eon™ microplate reader (Biotek, Vermont, United States).

[5] = tested on: TNF-α, IL-4, IL-17A, IL-1β and IL-6 in serum; experiment: Cytokines in sera of STA mice (CBA Multiplex kit, ELISA); assay type: in vivo, C57BL/6 mice
Experimental: (§3) K/BxN serum was collected from K/BxN mice at 8 weeks of age, pooled, aliquoted and stored at -20 °C. K/BxN serum-transfer arthritis (STA) model was induced by intraperitoneal (i.p.) application of 150 μL of serum at day 0. Clinical score for arthritis severity was assessed using a 0–4 point scale for each paw at various time points (0–16 total score) as described previously ([Luo et al., 2011]). 8-week old male C57BL/6 mice were purchased from Dashuo Animal Center (China, Chengdu), maintained at 25°C, and exposed to 12-h light and dark cycles. Mice were fed with standard laboratory chow and water with 1 week of acclimatization. Naive mice were used as the control group. Except the control mice, all mice were i. p. injected with 150 μL of serum, then randomly divided into the following groups and treated with different compounds daily for the consecutive 8 days: 1) STA group; 2) Solvent control group, mice were gavaged with the solvent; 3) Dexamethasone (DEX) group, mice were gavaged with 30 mg/kg DEX; 4) EFL2 group 1, mice were gavaged with 40 mg/kg EFL2; 5) EFL2 group 2, mice were intraperitoneally injected with 15 mg/kg EFL2; 6) EFL2 group 3, […] were intraperitoneally injected with 40 mg/kg EFL2. […] All animal experiments were conducted in accordance with ethical regulation for animal care and use in China.
as §2

[6] = tested on: chemokine, cytokine and TLR pathway mRNA expression in the ankles; experiment: Quantitative RT-PCR of ankles of STA mice; assay type: in vivo, C57BL/6 mice
Experimental: as §3
Frozen right ankles were pulverized with liquid nitrogen and total RNA was extracted using Trizol reagent (Invitrogen). RNA was reverse transcribed into cDNA using an oligo d(T) primer. The obtained cDNA was applied for quantitative RT-PCR using SYBR Green I-dTTP (Eurogentec). Samples were analyzed in triplicate, and β-actin was used as endogenous controls. Data was analyzed using the 2^−ΔΔCt method and is expressed as “Fold change” (expression relative to housekeeping gene and normalized to reference sample).

[7] = STA mice day 5, EFL2 40 mg/kg i.p.

Q: For C=C1C(OC(=O)c2ccccc2)CC2C(C=C(C)C(=O)C3(OC(C)=O)CC(C)C(OC(=O)c4ccccc4)C3C1OC(C)=O)C2(C)C (centres unmarked) [EFL2, Euphorbia factor L2], which “apoptosis of A549 cells” value [1] is on record?
A: induced the apoptosis

Q: And the “SMMC-7721 and Hep G2 cells proliferation and migration” value [2]?
A: suppressing

Q: And the “levels of IL-1β and IL-6 in the supernatant” value ([3]; BMDMs co-stimulated by poly (I:C) and R837, various concentrations of EFL2)?
A: to different expent decreased

Q: And the IL-6 production ([3]; R837-stimulated BMDMs, EFL2 0.1-10 μM)?
A: dose-dependently reduced

Q: And the IL-1β secretion ([3]; R837-stimulated BMDMs, EFL2 at 0.1 μM)?
A: effectively inhibit

Q: And the “concentration at which significant cytotoxicity is displayed” value [4]?
A: ≥ 25 µM

Q: What about the “IL-6 level in sera” value ([5]; STA mice, EFL2 15 mg/kg i.p., day 8) of the same compound?
A: only effectively inhibited

Q: What about the “IL-1β level in sera” value ([5]; STA mice, EFL2 40 mg/kg i.p.) of the same compound?
A: significantly reduced

Q: What about the “IL-6 level in sera” value ([5]; STA mice, EFL2 40 mg/kg i.p.) of the same compound?
A: significantly reduced

Q: And the “TNF-α, IL-4 and IL-17A levels in blood (other cytokines)” value ([5]; control, STA and STA mice treated with DEX or EFL2)?
A: did not affect

Q: And the “CXCL1 mRNA expression in the ankles” value [6, 7]?
A: remarkably down-regulated

Q: And the “CXCL5 mRNA expression in the ankles” value [6, 7]?
A: remarkably down-regulated

Q: What about the “CCL3 mRNA expression in the ankles” value ([6]; STA mice, EFL2 15 mg/kg i.p.) of the same compound?
A: only significantly decreased

Q: And the “CCL3 gene expression in the ankles” value ([6]; STA mice, EFL2 40 mg/kg i.p.)?
A: significantly reduced

Q: And the “mRNA expression of up-regulated TLR pathway genes (TLR7, TLR2, TLR9, Myd88, IRAK1/4, Nfkbia/ib, IRF5, Rel, Map3K7, Mapk8) in ankles” value ([6]; STA mice, EFL2 40 mg/kg i.p., RT-PCR)?
A: robust inhibitory effect

Q: What about the “IL-1β mRNA expression in the ankles” value ([6]; STA mice, EFL2 i.p. treatment) of the same compound?
A: robustly inhibited

Q: What about the “IL-6 mRNA expression in the ankles” value ([6]; STA mice, EFL2 i.p. treatment) of the same compound?
A: robustly inhibited
